We go through three substances from publication PMC9741104, “Uptake of Flaxseed Dietary Linusorbs Modulates Regulatory Genes Including Induction of Heat Shock Proteins and Apoptosis” (Foods, 2022).

One data set relates to Calu-3 cells. Put plainly: Microarray analysis of apoptosis-regulating genes (Rt2 Profiler PCR Super Array). As to conditions: Calu-3 exposed to LOs. The format is cell-based, human. On the set-up: key: +: genes over-expressed; NE: not expressed; –: genes under-expressed. Here is the method: Human bronchial epithelial adenocarcinoma cell line (Calu-3) was obtained from the American Type Culture Collection (ATCC, Manassas, VA, USA). Calu-3 cell line was cultured in plastic culture flasks containing Modified Eagle’s Medium (MEM) and supplemented with 10% fetal bovine serum, glutamine (4 mM), and penicillin (100 U/mL)-streptomycin (100 μg/mL) solution. Cells were cultured to a density of 10^6 cells/mL before adding fresh media (on day 3). The cells were then grown at 37 °C under 5% CO2, and 100% humidity.
Microarray analysis was performed to determine LO effects on the expression of genes involved in regulating apoptosis (i.e., pro- or anti-apoptotic genes) in Calu-3 cells. These analyses were using an Rt2 Profiler PCR Super Array kit (Super Arrays Bioscience Corp., Frederick, MD, USA) following manufacturer’s instructions and were recorded using an MX3005P LightCycler (Stratagene, La Jolla, CA, USA).

A short description of data set [1]: Circular dichroism secondary structure estimate in aqueous-DMSO solution. The format is physicochemical. As to conditions: CD spectra 260–200 nm, H2O/DMSO (3%, v/v), room temperature, CDNN deconvolution, triplicate. Here is the method:
Circular dichroism (CD) spectroscopy was performed on LO samples using a fresh solution of aqueous-dimethylsulfoxide solution (H2O/DMSO, 3%, v/v). CD measurements were completed using a Pistar 180 spectrometer (Applied Photophysics Ltd., Leatherhead, UK). Sample measurements were conducted at room temperature using a 0.01 cm cuvette (Hellma 106-QSP), and samples were scanned between 200–260 nm at 0.5 nm increments, with a scan rate of 10 nm/min. The instrument was calibrated using (+)-10-camphorsulfonic acid (290.5 nm wavelength). Experiments were performed in triplicate and are reported as mean ± standard deviation (SD). The secondary structure content of the samples was evaluated with the CDNN CD Spectroscopy Deconvolution software version 2.0.3.188 [30]. Molar ellipticities were calculated from molecular masses of 977.26–1074.37 Da for LOs. All spectra were corrected by background subtraction of H2O/DMSO (3%, v/v).

A further data set deals with C. elegans. The experiment in a line: Lethality in nematode cultures. The format is in vivo, Caenorhabditis elegans. The settings on record: 100 µM, 2 h exposure.
The test system of another data set is HSP 70A. The experiment in a line: Induction of HSP 70A in nematodes (qRT-PCR). It is filed as in vivo, Caenorhabditis elegans. The settings on record: 2 h exposure, normalized to GAPDH, three repetitions. Here is the method: Gene expression of HSP 70A in nematodes was completed as described in Saini et al. (2011). Briefly, C. elegans N2 strains were cultured in the dark and at room temperature on sterile plates (10 mm; VWR, Edmonton, AB, Canada) containing 10% bacteriological agar (Sigma-Aldrich, Oakville, ON, Canada) and autoclaved Baker’s yeast (1%, w/v). C. elegans were sub-cultured every 14 days to fresh plates. Exposure experiments began using C. elegans, which were two weeks old. These cultures were exposed for 2 h to either DMSO (negative control) or various concentrations (0.1, 1.0, 10.0, and 100.0 µM) of LOB3 dissolved in DMSO. After exposure, these organisms were then re-cultured to assess the effects of LOB3 on HSP 70A gene expression. An unamended culture medium was used as the control treatment. After treatment, cultures were centrifuged at 400× g for 10 min at 4 °C. The pellet was retained and stored at −80 °C until further analysis.
RNeasy® Mini kits (Qiagen, Mississauga, ON, Canada) were used to extract total RNA from C. elegans lysates, according to the manufacturer’s instructions. RNA quality was confirmed and quantified using agarose gel electrophoresis and a Nano Drop® spectrophotometer (Thermo Fisher Scientific, Ottawa, ON, Canada), respectively. […] This was accomplished using a Stratagene MX3005P LightCycler (La Jolla, CA, USA). The glyceraldehyde-3-phosphate dehydrogenase gene (GAPDH; GenBank Accession No. X04818) was used as the reference housekeeping gene for qRT-PCR analyses. The primer pairs used during qRT-PCR are listed in Table 2. qRT-PCR reactions were performed using QuantiFast® SYBR® Green PCR kit (Qiagen, Mississauga, ON, Canada) following the manufacturer’s instructions. The thermocycler conditions included an initial denaturation at 95 °C for 5 min, followed by 45 cycles of denaturation at 95 °C for 30 s, annealing at 55 °C for 30 s and elongation at 60 °C for 45 s, to amplify the target gene. Relative gene expression levels were corrected against the GAPDH housekeeping gene using MXPro software. All analyses were completed in triplicate.

Data set [2] in a line: LOs in pig adipose after flaxseed diet (HPLC-ToF-MS). The settings on record: pig fed diet with 15% extruded flaxseed meal; fat biopsy at 10th rib, chloroform extract, HPLC-ToF-MS molecular ions.
Description: Swine were fed a diet consisting of 15% flaxseed meal that was combined with other ingredients then extruded. Swine fat samples were taken from an 8 mm biopsy punch at the 10th rib, approximately 5 cm from the backbone [31]. The tissue samples were then extracted with chloroform and the extracts were dried, taken up in acetonitrile, and analyzed via direct loop injections using an Agilent 1100-series high-performance liquid chromatography (HPLC, Agilent, Santa Clara, CA, USA) equipped with a time-of-flight mass spectrometer (ToF-MS). Each sample extract was injected at a flow rate of 50 μL/min. The mobile phase consisted of 95% water: methanol containing 0.1% formic acid, and 5% acetonitrile.
Data set [3] concerns breast cancer cell line MDA-MB-231. As to conditions: doses lower than 10 µM; cited from earlier work.
The next data set relates to cancer C6 cells. As to conditions: cited from earlier work.
For data set [4] the following is noted: administered orally and intravenously, cited from earlier work. The source says:
The combined characteristics of the strong immunosuppressive activity and low toxicity make LOB3 an immunosuppressive drug candidate. Other LOs and their analogs have also been investigated for their immunosuppressant activity. […] Similarly, [1–8-NαC], [1-(Rs, Ss)-MetO]-linusorb B1 (LO1OB1, also known as CLE) ...

“And” between values parts separate entries of the source, which are not always exact repeats. Equal values may be shown once. Read-outs that look alike come from different tables or passages of the source. Marks after values point to notes of the source that are not given here.

Consider “[1–8-NαC], [1-(Rs, Ss)-MetO]- linusorb B1 [LO1OB1]”, for which, in the data set with Calu-3 cells, the “BAK1 (BCL2 antagonist/killer 1) up- or down-regulated” value was “NE”, the “BCL2 (B-cell lymphoma 2) up- or down-regulated” value is recorded as “– ^c”, the “CASP10 (Caspase 10) up- or down-regulated” value (“CASP10” below) is on record as “NE” and the “CIDEA (Cell death-inducing DFFA-like effector A) up- or down-regulated” value (“CIDEA” below) was “+”. Besides, in the data set with Calu-3 cells, the “CIDEB (Cell death-inducing DFFA-like effector B) up- or down-regulated” value (shortened to “CIDEB”) was “+”, the “Fas (TNF receptor superfamily member 6) up- or down-regulated” value is listed as “+”, the “FasL (Fas ligand) up- or down-regulated” value is “NE” and the “HRK (Harakiri) up- or down-regulated” value is on record as “+”. In the data set with Calu-3 cells, the “TNF (Tumor necrosis factor) up- or down-regulated” value is “+”, the “TP53 (Tumor protein p53) up- or down-regulated” value is “NE” and the “TP53BP2 (Tumor protein p53 binding protein 2) up- or down-regulated” value (“TP53BP2” for short) is on record as “+”. Further, in data set [1], the “Antiparallel (%)” value is reported as 0.00%, the “Parallel (%)” value is listed as 0.30%, the “Random Coil (%)” value is given as 18.20% and the “α-Helix (%)” value is reported as 75.30%. Besides, in data set [1], the “β-Turn (%)” value is reported as 6.20%.
[1–9-NαC]-linusorb B3 [LOB3]: in the data set with Calu-3 cells, the “BAK1 (BCL2 antagonist/killer 1) up- or down-regulated” value is “+ ^a”, the “CASP10” value was “NE”, the “CIDEA” value is on record as “NE” and the “CIDEB” value was “+”. In the data set on Calu-3 cells, the “Fas (TNF receptor superfamily member 6) up- or down-regulated” value was “+”, the “FasL (Fas ligand) up- or down-regulated” value is recorded as “+”, the “HRK (Harakiri) up- or down-regulated” value is reported as “NE” and the “TNF (Tumor necrosis factor) up- or down-regulated” value is listed as “+”. For the same substance, in the data set on Calu-3 cells, the “TP53 (Tumor protein p53) up- or down-regulated” value is “+” and the “TP53BP2” value is recorded as “+”. The Lethality entry with C. elegans is given as “lethal”. Further, in the data set with HSP 70A (0.1 µM), the “Increase in HSP 70A production” value was 30%. The “Increase in HSP 70A production” value in the data set on HSP 70A (1.0 µM) is listed as 3.5 fold. Also, the “Increase in HSP 70A production” value in the data set on HSP 70A (10.0 µM) came out at 30%. Besides, in data set [2], the “Distribution to adipose tissue” value was “trace amounts”. The Cytotoxic effects result in data set [3] is “no cytotoxic effects”. In addition, the Cytotoxic effects entry in the data set on cancer C6 cells (concentrations greater than 10.0 µM, changes in cell shape and reduction in cell numbers) was “cytotoxic effects were observed”. Besides, the Cytotoxic effects entry in the data set with cancer C6 cells (doses lower than 10 µM) was “no cytotoxic effects”. Moreover, in data set [4] (mice), the Toxicity result is “non-toxic”. In data set [4] (rats), the Toxicity result is listed as “non-toxic”. Moreover, in data set [1], the “Antiparallel (%)” value was 0.00%, the “Parallel (%)” value is reported as 0.3%, the “Random Coil (%)” value is given as 0.1% and the “α-Helix (%)” value is given as 98.90%. In data set [1], the “β-Turn (%)” value was 0.7%.
In the case of “[1–9-NαC], [1-(Rs, Ss)-MetO]- linusorb B2 [LO1OB2]”, in the data set with Calu-3 cells, the “BAK1 (BCL2 antagonist/killer 1) up- or down-regulated” value is given as “NE ^b”, the “BCL2 (B-cell lymphoma 2) up- or down-regulated” value was “–”, the “CASP10” value was “+” and the “CIDEA” value is given as “+”. In the data set on Calu-3 cells, the “CIDEB” value was “+”, the “Fas (TNF receptor superfamily member 6) up- or down-regulated” value was “+”, the “FasL (Fas ligand) up- or down-regulated” value is “NE” and the “HRK (Harakiri) up- or down-regulated” value is given as “+”. Besides, in the data set with Calu-3 cells, the “TNF (Tumor necrosis factor) up- or down-regulated” value is reported as “+”, the “TP53 (Tumor protein p53) up- or down-regulated” value is “+” and the “TP53BP2” value is on record as “+”. For the same substance, in data set [1], the “Antiparallel (%)” value is on record as 0.00%; the “Parallel (%)” value was 0.40%; the “Random Coil (%)” value is given as 0.10%; the “α-Helix (%)” value was > 75% and 98.90%. Further, the “β-Turn (%)” value in data set [1] is listed as 0.60%.
